Reference: patent US20260200945A1, “4-(3,8-DIAZABICYCLO[3,2,1]OCTAN-3-YL)-PYRIDO[4,3-D]PYRIMIDINE DERIVATIVES AS INHIBITORS OF THE KRAS (G12D) MUTANT ONCOPROTEIN FOR THE TREATMENT OF CANCER” (Ranok Therapeutics (Hangzhou) Co. Ltd., priority 2022, published 2026)

Legend:
AGS cells = test: Cancer Cell Line Proliferation (CellTiter-Glo) AGS; format: cell-based; conditions: Homo sapiens, 72 hr, read-out: CTG(IC50) ABS-72H(nM) AGS
Experimental: (§1) The following cancer cell lines were employed: AGS gastric carcinoma [heterozygous […]](ATCC, CRL-1739); A-427 lung carcinoma [heterozygous G12D](ATCC, HTB-53); ASPC1 pancreatic adenocarcinoina [homozygous […]](ATCC, CRL-1682) and SW1990 pancreatic adenocarcinoma [homozygous G12D](ATCC CRL-2172). Cell lines were cultured essentially according to ATCC recommendations. AGS, SW1990, and GP2D cells were plated in 96-well tissue culture plates at 4,000 cells/well and incubated at 37° C./5% CO2 for 72 hr in 100 μl of media. 3-fold serial dilutions of each test compound were prepared ranging from 20 µM to 1.02 nM. Each cell line was then treated with test compounds at various concentrations with a final concentration of 0.5% DMSO/well, and then incubated at 37° C./5% CO2 for 72 hr. 100 μl of CellTiter-Glo® Reagent (Promega Corporation, Madison, WI) was added to each well and processed according manufacturer's protocol. Results were analyzed and IC50 values were calculated in GraphPad 7 software.

GP2D cells = test: Cancer Cell Line Proliferation (CellTiter-Glo) GP2D; format: cell-based; conditions: 72 hr, read-out: CTG(IC50) ABS-72H(nM) GP2D
Experimental: AGS, SW1990, and GP2D cells were plated in 96-well tissue culture plates at 4,000 cells/well and incubated at 37° C./5% CO2 for 72 hr in 100 μl of media. 3-fold serial dilutions of each test compound were prepared ranging from 20 µM to 1.02 nM. Each cell line was then treated with test compounds at various concentrations with a final concentration of 0.5% DMSO/well, and then incubated at 37° C./5% CO2 for 72 hr. 100 μl of CellTiter-Glo® Reagent (Promega Corporation, Madison, WI) was added to each well and processed according manufacturer's protocol. Results were analyzed and IC50 values were calculated in GraphPad 7 software.

[1] = Oral Bioavailability in CD-1 mice; format: in vivo; conditions: mouse, blood; male CD-1 mice, single oral dose, LC-MS/MS; read-out: % F (mean oral bioavailability)
Experimental: CD-1 mice were randomly assigned to 6 groups with 3 male mice in each compound group. Compounds were orally administered (P0) in a single dose to each mouse in its group. Blood samples were taken within 72 hours. Bioavailability (F %) was determined and by liquid chromatography-mass spectrometry (LC-MS/MS).

SW1990 cells = test: Cancer Cell Line Proliferation (CellTiter-Glo) SW1990; format: cell-based; conditions: Homo sapiens, 72 hr, read-out: CTG(IC50) ABS-72H(nM) SW1990
Experimental: as §1

KRAS(G12D)/SOS1 = target: T1, KRAS(G12D)/SOS1 (Homo sapiens, UniProt P01116, G12D); test: KRAS(G12D)/SOS1 Homogeneous Time-Resolved Fluorescence (HTRF) Assay; format: binding; conditions: absence of GTP, 4° C. for 3 hr
T1 construct: purchased Cisbio 63ADK000CB17PEH
Experimental: Binding of test compounds to KRAS(G12D) target protein, which in turn blocks KRAS(G12D) interaction with the SOS1 protein, was measured in the absences of GTP by homogeneous time-resolved fluorescence using the KRAS-G12D/SOS1 Binding Assay Kit (Cisbio, 63ADK000CB17PEH), following the manufacturer's instructions, except as noted. 3-fold serial dilutions of each test compound were prepared ranging from 20 µM to 1.02 nM. The test compound was mixed and incubated with reaction components, incubated in a sealed plate at 4° C. for 3 hr and fluorescence was measured using a PerkinElmer Envision plate reader. The KRAS(G12D)-SOS1 IC50 values (the concentration of 50% of the maximal inhibition) were calculated using GraphPad Prism 7 software.

T1 sequence (P01116 1-188 isoform P01116-2 G12D): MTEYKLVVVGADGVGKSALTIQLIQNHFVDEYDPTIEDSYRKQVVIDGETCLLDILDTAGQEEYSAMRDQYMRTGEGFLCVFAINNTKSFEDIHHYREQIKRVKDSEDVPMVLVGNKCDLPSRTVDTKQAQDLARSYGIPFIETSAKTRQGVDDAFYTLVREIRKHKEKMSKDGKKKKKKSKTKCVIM

SMILES | IC50 (AGS cells) | IC50 (GP2D cells) | bioavailability [1] | IC50 (SW1990 cells) | IC50 (KRAS(G12D)/SOS1)
C#Cc1c(F)ccc2cc(O)cc(-c3nc(OC)c4c(N5CC6CCC(C5)N6)nc(OCC(=C)CN5CC6CC6C5)nc4c3F)c12 (centres unmarked) [Example 1, 4-{2-[(2-{3-azabicyclo[3.1.0]hexan-3-ylmethyl}prop-2-en-1-yl)oxy]-4-{3,8-diazabicyclo[3.2.1]octan-3-yl}-8-fluoro-5-methoxypyrido[4,3-d]pyrimidin-7-yl}-5-ethynyl-6-fluoronaphthalen-2-ol] | < 100 nM | < 100 nM | 10.6% | < 100 nM | < 0.1 µM
C#Cc1c(F)ccc2cc(O)cc(-c3nc(OC)c4c(N5CC6CCC(C5)N6)nc(OCC(CN5CC6CC6C5)=C(C)C)nc4c3F)c12 (centres unmarked) [Example 2, 4-{2-[(2-{3-azabicyclo[3.1.0]hexan-3-ylmethyl}-3-methylbut-2-en-1-yl)oxy]-4-{3,8-diazabicyclo[3.2.1]octan-3-yl}-8-fluoro-5-methoxypyrido[4,3-d]pyrimidin-7-yl}-5-ethynyl-6-fluoronaphthalen-2-ol] | < 100 nM | < 100 nM | 12.1% | < 100 nM | < 0.1 µM
C#Cc1c(F)ccc2cc(O)cc(-c3ncc4c(N5CC6CCC(C5)N6)nc(OCC(=C)CN5CCC(F)CC5)nc4c3F)c12 [Example 3] | < 100 nM | < 100 nM |  | < 100 nM | < 0.1 µM
[2H]C([2H])([2H])Oc1nc(-c2cc(O)cc3ccc(F)c(C#C)c23)c(F)c2nc(OCC(=C)CN3CC4CC4C3)nc(N3CC4CCC(C3)N4)c12 (centres unmarked) [Example 4] | < 100 nM | < 100 nM | 1.7% | < 100 nM | < 0.1 µM
C#Cc1c(F)ccc2cc(O)cc(-c3nc(OC)c4c(N5CC6CCC(C5)N6)nc(OCC(=C)CN5CC6C(F)C6C5)nc4c3F)c12 (centres unmarked) [Example 5] | < 100 nM | < 100 nM | 7.7% | < 100 nM | < 0.1 µM
C#Cc1c(F)ccc2cc(O)cc(-c3nc(OC)c4c(N5CC6CCC(C5)N6)nc(OCC(CN5CC6CC6C5)=C(F)F)nc4c3F)c12 (centres unmarked) [Example 6] | < 100 nM | < 100 nM |  | < 100 nM | 
C#Cc1c(F)ccc2cc(O)cc(-c3nc(OC)c4c(N5CC6CCC(C5)N6)nc(OCC(=CCC)CN5CC6CC6C5)nc4c3F)c12 (centres unmarked) [Example 7] | 100 to 1000 nM | 100 to 1000 nM |  |  | 
[2H]C([2H])([2H])Oc1nc(-c2cc(O)cc3ccc(F)c(C#C)c23)c(F)c2nc(OCC(=C)CN3CC4C(F)C4C3)nc(N3CC4CCC(C3)N4C(=O)C(F)(F)F)c12 (centres unmarked) [Example 8] | 100 to 1000 nM | 100 to 1000 nM |  |  | 
C#Cc1c(F)ccc2cc(O)cc(-c3nc(OC)c4c(N5CC6CCC(C5)N6)nc(OC/C(=C\C)CN5CC6CC6C5)nc4c3F)c12 (centres unmarked) [Example 9] | < 100 nM | < 100 nM |  |  | 
C#Cc1c(F)ccc2cc(N)cc(-c3nc(OC)c4c(N5CC6CCC(C5)N6)nc(OCC(=C)CN5CC6CC6C5)nc4c3F)c12 (centres unmarked) [Example 10] | 100 to 1000 nM | < 100 nM |  |  | 
C#Cc1c(F)ccc2cc(O)cc(-c3nc(OC)c4c(N5CC6CCC(C5)N6)nc(OC/C(=C/CC)CN5CC6CC6C5)nc4c3F)c12 (centres unmarked) [Example 11] | < 100 nM | < 100 nM |  |  | 
C#Cc1c(F)ccc2cc(O)cc(-c3nc(OC)c4c(N5CC6CCC(C5)N6)nc(OC/C(=C\CC)CN5CC6CC6C5)nc4c3F)c12 (centres unmarked) [Example 12] | 100 to 1000 nM | < 100 nM |  |  | 
C#Cc1c(F)ccc2cc(O)cc(-c3nc(OC)c4c(N5CC6CCC(C5)N6)nc(OC/C(=C\C(F)(F)F)CN5CC6CC6C5)nc4c3F)c12 (centres unmarked) [Example 13] | 100 to 1000 nM | 100 to 1000 nM |  |  | 
C#Cc1c(F)ccc2cc(O)cc(-c3nc(OC)c4c(N5CC6CCC(C5)N6CC#N)nc(OCC(CN5CC6CC6C5)=C(C)C)nc4c3F)c12 (centres unmarked) [Example 14] | < 100 nM | < 100 nM |  |  | 
C#Cc1c(F)ccc2cc(O)cc(-c3nc(OC)c4c(N5CC6CCC(C5)N6)nc(OC/C(CN5CC6CC6C5)=N/OC)nc4c3F)c12 (centres unmarked) [Example 15] | < 100 nM | < 100 nM |  |  | 
C#Cc1c(F)ccc2cc(O)cc(-c3nc(OC)c4c(N5CC6CCC(C5)N6)nc(OC/C(CN5CC6CC6C5)=N\OC)nc4c3F)c12 (centres unmarked) [Example 16] | < 100 nM | < 100 nM |  |  | 
C#Cc1c(F)ccc2cc(O)cc(-c3nc(OC)c4c(N5CC6CCC(C5)N6)nc(OC/C(=C\C#N)CN5CC6CC6C5)nc4c3F)c12 (centres unmarked) [Example 18] | 100 to 1000 nM |  |  |  | 
C#Cc1c(F)ccc2c(F)c(O)cc(-c3nc(OC)c4c(N5CC6CCC(C5)N6)nc(OCC(CN5CC6CC6C5)=C(C)C)nc4c3F)c12 (centres unmarked) [Example 19] | 100 to 1000 nM | < 100 nM |  |  | 
